Laboratory results as given in the NIST ThermoML archive (doi:10.1016/j.jct.2015.03.002).

Conditions: Liquid

CCCC[N+]1(C)CCCC1.FC(F)(F)C(F)(F)[P-](F)(F)(F)(C(F)(F)C(F)(F)F)C(F)(F)C(F)(F)F
viscosity [mPa·s]
Conditions | 10000 kPa | 15000 kPa | 25000 kPa | 50000 kPa | 75000 kPa | 100000 kPa | 125000 kPa | 150000 kPa
303.15 K, Concentric cylinders viscometry | 198.9 | 221.8 | 273.1 | 465.5 | 791.6 | – | – | –
303.15 K, Falling or rolling sphere viscometry | 189.5 | 212.4 | 265.5 | 454.7 | 765.1 | 1274 | 2111 | 3485
313.15 K, Concentric cylinders viscometry | 118.9 | 131.3 | 162.6 | 263.5 | 434.8 | – | – | –
313.15 K, Falling or rolling sphere viscometry | 113.5 | 124.7 | 150.6 | 241.3 | 386.8 | 620.3 | 995.1 | 1597
323.15 K, Concentric cylinders viscometry | – | – | – | – | 234.7 | – | – | –
323.15 K, Falling or rolling sphere viscometry | 73.4 | 80 | 94.9 | 145.4 | 222.6 | 340.5 | 520.9 | 797
333.15 K, Falling or rolling sphere viscometry | 48 | 52 | 61 | 90.7 | 134.3 | 198.1 | 291.7 | 429.1
343.15 K, Falling or rolling sphere viscometry | 33.9 | 36.5 | 42.2 | 60.5 | 86.9 | 124.5 | 178.5 | 255.8
353.15 K, Falling or rolling sphere viscometry | 24.7 | 26.6 | 30.7 | 43.4 | 60.6 | 84.1 | 116 | 159.3

CCCC[N+]1(C)CCCC1.O=S(=O)([O-])C(F)(F)F [1-butyl-1-methylpyrrolidinium trifluoromethanesulfonate]
viscosity [mPa·s]
Conditions | 10000 kPa | 15000 kPa | 25000 kPa | 50000 kPa | 75000 kPa | 100000 kPa | 125000 kPa | 150000 kPa
303.15 K, Concentric cylinders viscometry | 147.2 | 158.4 | 181.8 | 249.5 | 341.1 | – | – | –
303.15 K, Falling or rolling sphere viscometry | 144.8 | 154.3 | 174.9 | 236.9 | 317.7 | 422.8 | 559.5 | 737.7
313.15 K, Concentric cylinders viscometry | – | – | – | 148.1 | 202.2 | – | – | –
313.15 K, Falling or rolling sphere viscometry | 89.2 | 94.8 | 106.9 | 142.7 | 188.1 | 245.4 | 318.1 | 410.1
323.15 K, Falling or rolling sphere viscometry | 58.9 | 62.5 | 70.2 | 92.3 | 119.5 | 153 | 194.1 | 244.7
333.15 K, Falling or rolling sphere viscometry | 41.7 | 43.9 | 48.6 | 62.3 | 79 | 99.6 | 124.9 | 156
343.15 K, Falling or rolling sphere viscometry | 29.9 | 31.4 | 34.7 | 44.2 | 55.7 | 69.6 | 86.4 | 106.8
353.15 K, Falling or rolling sphere viscometry | 22.5 | 23.7 | 26.1 | 32.7 | 40.5 | 49.4 | 59.9 | 72

CC(C)CCCC(C)CCCC(C)CCCCC(C)CCCC(C)CCCC(C)C (configuration not stated) [2,6,10,15,19,23-hexamethyltetracosane]
viscosity [mPa·s], Falling or rolling sphere viscometry
Conditions | 10000 kPa | 15000 kPa | 25000 kPa | 50000 kPa | 75000 kPa | 100000 kPa | 125000 kPa | 150000 kPa
303.15 K | 27.4 | 30.8 | 38.2 | 62.7 | 98.5 | 150.8 | 227.4 | 339.5
313.15 K | 18.4 | 20.4 | 24.8 | 39.1 | 59.5 | 88.7 | 130.3 | 189.8
323.15 K | 13 | 14.3 | 17.1 | 26.1 | 38.7 | 56.3 | 80.9 | 115.4
333.15 K | 9.2 | 10.1 | 12.1 | 18.2 | 26.5 | 37.8 | 53.2 | 74
343.15 K | 7 | 7.6 | 9 | 13.3 | 19 | 26.7 | 37 | 50.8
353.15 K | 5.4 | 5.9 | 6.9 | 10.1 | 14.2 | 19.5 | 26.4 | 35.5
